Assay [1] deals with GABAA central benzodiazepine receptor. In words: Benzodiazepine binding assay ((3H)-flunitrazepam displacement). Conditions: read-out: BZ binding assay (IC50); rat whole brain (except cerebellum), 1 nM (3H)-flunitrazepam, 60 minutes at 25° C.; 3-concentration dose response curve.
A further assay relates to GABAA receptors. In words: Electrophysiology assay (two-electrode voltage clamp, Xenopus oocytes expressing GABAA receptors). Format: cell-based. Conditions: positive (Pos) or negative (Neg) modulation of current at GABA EC20, screening concentration of 10 μM. The method, then:
The modulation of GABAA function is determined by changes in current as determined in an electrophysiology assay, as is detailed below.
mRNA was prepared from lyophilized plasmid pellets containing cDNA inserts encoding the specific GABAA receptor subunit. cDNAs encoding the α2, α3, and γ3 subunits were subcloned into pBluescript, SK^−. cDNAs encoding the a 1 and a 5 subunits were subcloned into prC while cDNA encoding the β2 subunit was subcloned into pcDNA1. The cDNA construct encoding the g 2s subunit is in the pGH19 expression construct. Overnight cultures of transformed DH5a bacterial cells were performed to grow sufficient quantities for maxiprep isolation of the plasmid cDNA. The resulting plasmid cDNA was linearized by digestion with an appropriate restriction enzyme that cleaves distal to the cDNA insert [XbaI (α1, β2), NotI (α3, γ2 s), SacII (α2), or ApaI (α5)]. Following digestion, plasmid cDNA was treated with proteinase K and extracted with phenol/chloroform/isoamyl alcohol, followed by ethanol precipitation. cDNA quality was assessed by agarose-gel electrophoresis (1.5% agarose gel). Samples were stored at −20° C. until use. In vitro transcription was performed with T7 RNA polymerase. mRNA was then stored at −80° C. until use. Plasmids were linearized with appropriate restriction enzymes before in vitro transcription using the Message Machine kit (Ambion, Austin, Tex.).
GABAA receptor expression in Xenopus oocytes: Following 45 min of 0.15% Tricaine anesthesia, an ovarian section containing the follicular oocytes was removed from the frog through a lateral abdominal incision. Oocytes were immediately placed in a calcium-free solution (NaCl 96 mM, MgCl2 1 mM, KCl 2 mM, Hepes 50 mM, pyruvate 2.5 mM, gentamycin 100 μg/mL, penicillin-streptomycin 50 U/mL, pH 7.4). Following 1.5-2 hour incubation in 0.2% collagenase (type II, Sigma Chemical Co., St. Louis, Mo.) at room temperature, individual Dumont stage V and VI oocytes were transferred to an incubator and maintained overnight in Barth's solution (NaCl 84 mM, NaHCO3 2.4 mM, MgSO4 0.82 mM, KCl 1 mM, Ca(NO3)2 0.33 mM, CaCl2 0.41 mM, Tris/HCl 7.5 mM, pyruvate 2.5 mM, gentamycin 50 μg/mL, penicillin-streptomycin, 100 units/mL, pH 7.4) at 18-20° C. and used for experiments 1-5 days post-injection. Oocytes were injected solution using an electronic microinjector (Drummond, Broomall, Pa.) with 50 nL of RNA containing 0.3-0.5 ng of each subunit RNA in a 1:1:2 ratio. The injected oocytes were used for experiments after 1-5 days of incubation in Barth's solution at 18-20° C.
Measurements of ion currents from oocytes expressing GABAA receptors were performed using a Warner two-electrode voltage-clamp amplifier (Warner Instruments, Inc., Foster City, Calif.) (Park-Chung, M. A., et al. (1999) Brain Res. 830: 72-87 incorporated herein in its entirety). Microelectrodes were fabricated from borosilicate glass capillaries with a programmed pipette puller (Sutter Instrument Co., CA). Microelectrode resistance was 1-3 MΩ when filled with 3 M KCl. The oocyte recording chamber was continuously perfused with ND-96 solution. Oocytes were clamped at a holding potential of −70 mV during data acquisition. The membrane current was filtered at 10 Hz and sampled at 100 Hz. Compounds were applied by a gravity-driven external perfusion system. The working volume of the recording chamber was […] and the rate of the perfusion was approximately […]. Compound application was 20-25 sec followed by a minimum of 150 sec wash. Data acquisition and external perfusion was computer controlled by custom-developed software. All experiments were performed at room temperature (22-24° C.). Dose-response data from each oocyte were fitted to the Hill equation by non-linear regression using the equation: IGABA=Emax/(1+(EC50/c)nH)
Emax is the maximum response, EC50 is the concentration producing 50% of the maximal response, nH is the Hill coefficient and c is the concentration of agonist. […]
For orientation: Two-electrode voltage clamp is typically applied to oocytes expressing channels or transporters.

Broadly, the IC50 is the concentration that inhibits the measured activity by half. With `COc1ccc(-n2nc3c4ccc(N5CCNCC5)cc4[nH]cc-3c2=O)cc1` [14e, 2-(4-Methoxyphenyl)-7-piperazin-1-yl-2,5-dihydro-pyrazolo[4,3-c]quinolin-3-one], the IC50 in assay [1] was less than 1000 nM. The “EP Result” value in the assay with GABAA receptors is “Neg”.
Consider `COc1ccc(-n2nc3c4cc(N5CCNCC5)ccc4[nH]cc-3c2=O)cc1` [7e, 2-(4′-Methoxyphenyl)-8-piperazin-1-yl-2,5-dihydro-pyrazolo[4,3-c]quinolin-3-one], for which, in assay [1], the IC50 was less than 1000 nM. Also, the “EP Result” value with GABAA receptors was “Pos”.
As for `COc1ccc(-n2nc3c4cc(N5CCN(C)CC5)ccc4[nH]cc-3c2=O)cc1` [7f, 2-(4′-Methoxyphenyl)-8-(4-methylpiperazin-1-yl)-2,5-dihydro-pyrazolo[4,3-c]quinolin-3-one], the 50% inhibitory concentration (IC50) in assay [1] is less than 1000 nM. For the same molecule, in the assay with GABAA receptors, the “EP Result” value is on record as “Pos”.
With `CN1CCN(c2c(F)cc3c4nn(-c5ccccc5)c(=O)c-4c[nH]c3c2F)CC1` [44b, 6,8-Difluoro-7-(4-methyl-piperazin-1-yl)-2-phenyl-2,5-dihydro-pyrazolo [4,3-c]quinolin-3-one], the IC50 in assay [1] was less than 1000 nM. Moreover, in the assay with GABAA receptors, the “EP Result” value is listed as “Pos”.
For `CC(C)N1CCN(c2cc3[nH]cc4c(=O)n(-c5ccccc5)nc-4c3cc2F)CC1` [28c, 8-Fluoro-7-(4-isopropylpiperazin-1-yl)-2-phenyl-2,5-dihydro-pyrazolo [4,3-c]quinolin-3-one] the same measures were less than 1000 nM and “Pos”.
Consider `O=c1c2c[nH]c3ccc(N4CCOCC4)cc3c-2nn1-c1ccccc1` [19d, 8-Morpholin-4-yl-2-phenyl-2,5-dihydro-pyrazolo[4,3-c]quinolin-3-one], for which the IC50 in assay [1] is less than 1000 nM. In addition, the “EP Result” value with GABAA receptors is on record as “Neg”.
In the case of `COc1ccc(-n2nc3c4cc(N5CCN(C(C)C)CC5)ccc4[nH]cc-3c2=O)cc1` [19i, 8-(4-Isopropylpiperazin-1-yl)-2-(4-methoxyphenyl)-2,5-dihydro-pyrazolo[4,3-c]quinolin-3-one], the IC50 in assay [1] is less than 1000 nM. The “EP Result” value with GABAA receptors is “Pos”.
For `O=c1c2c[nH]c3cc(Cl)c(N4CCNCC4)cc3c-2nn1-c1ccccc1` [19j, 7-Chloro-2-phenyl-8-piperazin-1-yl-2,5-dihydro-pyrazolo[4,3-c]quinolin-3-one] the same measures were less than 1000 nM and “Neg”.
With `O=c1c2c[nH]c3cc(N4CCNCC4)c(F)cc3c-2nn1-c1ccsc1` [28p, 8-fluoro-7-(piperazin-1-yl)-2-(thiophen-3-yl)-2,5-dihydro-pyrazolo[4,3-c]quinolin-3-one], the IC50 in assay [1] is less than 1000 nM. For the same molecule, the “EP Result” value in the assay with GABAA receptors was “Neg”.
For `O=c1c2c[nH]c3c(F)c(N4CCOCC4)c(F)cc3c-2nn1-c1ccccc1` [44c, 6,8-Difluoro-7-(morpholin-4-yl)-2-phenyl-2,5-dihydro-pyrazolo[4,3-c]quinolin-3-one] the same measures were less than 1000 nM and “Pos”.
As to `O=c1c2c[nH]c3cc(N4CCOCC4)ccc3c-2nn1-c1ccccc1` [28h, 7-Morpholin-4-yl-2-phenyl-2,5-dihydro-pyrazolo[4,3-c]quinolin-3-one], the IC50 in assay [1] was less than 1000 nM. Moreover, the “EP Result” value with GABAA receptors was “Pos”.
`O=c1c2c[nH]c3cc(F)c(N4CCOCC4)cc3c-2nn1-c1ccccc1` [19a, 7-Fluoro-8-morpholin-4-yl-2-phenyl-2,5-dihydro-pyrazolo[4,3-c]quinolin-3-one]: in assay [1], the half-maximal inhibitory concentration (IC50) is less than 1 nM. Further, in the assay on GABAA receptors, the “EP Result” value is reported as “Pos”.
For `O=c1c2c[nH]c3ccc(N4CCOCC4)cc3c-2nn1-c1ccccc1F` [19e, 2-(2-Fluorophenyl)-8-morpholin-4-yl-2,5-dihydro-pyrazolo[4,3-c]quinolin-3-one], the IC50 in assay [1] is less than 1000 nM. Further, the “EP Result” value in the assay with GABAA receptors was “Neg”.
Take `COc1ccc(-n2nc3c4ccc(N5CCN(C)CC5)cc4[nH]cc-3c2=O)cc1` [14f, 2-(4-Methoxyphenyl)-7-(4-methylpiperazin-1-yl)-2,5-dihydro-pyrazolo[4,3-c]quinolin-3-one]: in assay [1], the IC50 was greater than 1000 nM. Moreover, in the assay on GABAA receptors, the “EP Result” value was “Neg”.
For `O=c1c2c[nH]c3cc(N4CCNCC4)ccc3c-2nn1-c1ccccc1` [14a, 2-Phenyl-7-piperazin-1-yl-2,5-dihydro-pyrazolo[4,3-c]quinolin-3-one] the same measures were greater than 1000 nM and “Neg”.
As for `CC1CC(C)CN(c2cc3[nH]cc4c(=O)n(-c5ccccc5)nc-4c3cc2F)C1` (centres unmarked) [28e, 7-(3,5-Dimethylpiperidin-1-yl)-8-fluoro-2-phenyl-2,5-dihydro-pyrazolo[4,3-c]quinolin-3-one], the IC50 in assay [1] was less than 1000 nM. Also, the “EP Result” value with GABAA receptors is reported as “Pos”.
As for `CC1CN(c2cc3[nH]cc4c(=O)n(-c5ccccc5)nc-4c3cc2F)CC(C)O1` (centres unmarked) [28g, 7-(2,6-Dimethylmorpholin-4-yl)-8-fluoro-2-phenyl-2,5-dihydro-pyrazolo[4,3-c]quinolin-3-one], in assay [1], the IC50 was less than 1000 nM. Moreover, the “EP Result” value in the assay with GABAA receptors was “Pos”.
For the molecule `COCCN1CCN(c2ccc3[nH]cc4c(=O)n(-c5ccccc5)nc-4c3c2)CC1` [19f, 8-[4-(2-Methoxyethyl)-piperazin-1-yl]-2-phenyl-2,5-dihydro-pyrazolo[4,3-c]quinolin-3-one], the IC50 in assay [1] is less than 1000 nM. Further, in the assay with GABAA receptors, the “EP Result” value is “Pos”.
For `O=c1c2c[nH]c3cc(N4CCNCC4)ccc3c-2nn1-c1ccc(Cl)cc1` [14c, 2-(4′-Chlorophenyl)-7-piperazin-1-yl-2,5-dihydro-pyrazolo[4,3-c]quinolin-3-one] the same measures were less than 1000 nM and “Neg”.
For `O=c1c2c[nH]c3c(F)c(N4CCNCC4)c(F)cc3c-2nn1-c1ccccc1` [44a, 6,8-Difluoro-2-phenyl-7-piperazin-1-yl-2,5-dihydro-pyrazolo[4,3-c]quinolin-3-one] the same measures were less than 1000 nM and “Neg”.
For `O=c1c2c[nH]c3ccc(N4CCCCC4)cc3c-2nn1-c1ccccc1` [19g, 2-Phenyl-8-piperidin-1-yl-2,5-dihydro-pyrazolo[4,3-c]quinolin-3-one] the same measures were less than 1000 nM and “Pos”.
As for `O=c1c2c[nH]c3cc(N4CCOCC4)c(F)cc3c-2nn1-c1ccccn1` [28d, 8-Fluoro-7-(morpholin-4-yl)-2-pyridin-2-yl-2,5-dihydro-pyrazolo[4,3-c]quinolin-3-one], the IC50 in assay [1] is less than 1000 nM. In the assay with GABAA receptors, the “EP Result” value is given as “Neg”.
`O=c1c2c[nH]c3cc(Cl)c(N4CCOCC4)cc3c-2nn1-c1ccccc1` [19k, 7-Chloro-8-morpholin-4-yl-2-phenyl-2,5-dihydro-pyrazolo[4,3-c]quinolin-3-one]: the IC50 in assay [1] is less than 1000 nM. The “EP Result” value in the assay with GABAA receptors is reported as “Pos”.
Take `O=c1c2c[nH]c3ccc(N4CCNCC4)cc3c-2nn1-c1ccccc1` [7a, 2-Phenyl-8-piperazin-1-yl-2,5-dihydro-pyrazolo[4,3-c]quinolin-3-one]: the IC50 in assay [1] is less than 1000 nM. Also, the “EP Result” value with GABAA receptors is “Pos”.
Turning to `O=c1c2c[nH]c3ccc(N4CCNCC4)cc3c-2nn1-c1ccc(Cl)cc1` [7c, 2-(4′-Chlorophenyl)-8-piperazin-1-yl-2,5-dihydro-pyrazolo[4,3-c]quinolin-3-one], the IC50 in assay [1] is less than 1000 nM. Also, the “EP Result” value in the assay with GABAA receptors was “Pos”.

Source of the values: patent publication US8598159B2, “Therapeutic pyrazoloquinoline derivatives” (Dart Neuroscience (Cayman) Ltd., priority 2007, dated 2013).
